Measured values taken from ChEMBL document CHEMBL6087436, “The novel β-hairpin antimicrobial peptide D-G(RF)3 demonstrates exceptional antibacterial efficacy” (Eur J Med Chem, 2025).
Activity calls are given as the source filed them. No cut-off for these calls is given here.

System: Escherichia coli
Assay: Antimicrobial activity against Escherichia coli at 2 times MIC in presence of LPS at 64 uM preincubated for 1 hr followed by bacterial addition and measured after 6 hrs by LPS competitive inhibition assay
Assay type: functional, organism-based
Conditions: time 7.0 hrs

How did the Activity turn out when `N=C(N)NCCC[C@H](NC(=O)CNC(=O)[C@H]1CCCN1C(=O)[C@H](CCCNC(=N)N)NC(=O)[C@H](Cc1ccccc1)NC(=O)[C@H](CCCNC(=N)N)NC(=O)[C@H](Cc1ccccc1)NC(=O)[C@H](CCCNC(=N)N)NC(=O)[C@@H](N)Cc1ccccc1)C(=O)N[C@@H](Cc1ccccc1)C(=O)N[C@@H](CCCNC(=N)N)C(=O)N[C@@H](Cc1ccccc1)C(=O)N[C@@H](CCCNC(=N)N)C(=O)N[C@@H](Cc1ccccc1)C(N)=O` was run?
Its Activity is “inactive”.
